Laboratory results: US9957253B2, “Triaminopyrimidine compounds useful for preventing or treating malaria” (MMV MEDICINES FOR MALARIA VENTURE, priority 2014, dated 2018)
Counter-ions that a name gives are not always drawn. Like-named read-outs stand apart in the source and are kept apart here.

What was measured:
[1] = Blood:Plasma (BP) ratio, rat; assay type: in vitro ADME
[2] = Blood:Plasma (BP) ratio, human; assay type: in vitro ADME
[3] = Plasma protein binding assay (equilibrium dialysis), rat; assay type: in vitro ADME
Experimental: Plasma Protein Binding Assay
Protein binding is measured using the equilibrium dialysis technique. Compound is added to 10% plasma giving a concentration of 20 μM and dialysed with isotonic buffer for 18 hours at 37° C. The plasma and buffer solutions are analysed using generic LCUVMS and the first apparent binding constant for the compound derived. The binding constant is then used to determine the % free in 100% plasma.

[4] = Prediction of human PK parameters (well stirred model); conditions: from human hepatocyte Clint and fu
Text: Prediction of Human Pharmacokinetic (PK) Parameters Well stirred model was used for predicting human CL using human hepatocyte Clint and free fraction (fu) in human plasma. Liver blood flow rates, liver weights, hepatocellularity and in vitro in vivo correlation/extrapolation (IVIVC/E) templates routinely employed (Smith et al., Pharmacokinetics and Metabolism in Drug Design, Methods and Principles in Medicinal Chemistry Volume 13, 2004, Wiley-VCH, Weinheim, Germany) were used for prediction.

CYP3A4 = CYP3A4 (Homo sapiens, UniProt P08684); test: CYP inhibition assay, CYP 3A4; assay type: in vitro ADME; conditions: probe midazolam; human liver microsomes, substrate cocktail
Experimental: (§1) This study was conducted using specific substrates for 5 major human CYP isozymes. These substrates were used as a cocktail (phenacetin, diclofenac, S-mephenytoin, bufuralol and midazolam which are predominantly metabolised by CYP 1A2, 2C9, 2C19, 2D6 and 3A4/5, respectively) at concentrations equivalent to their respective Km values. LC-MS-MS (MRM mode) was used to follow the formation of the CYP specific metabolites. A decrease in the formation of the metabolites in peak area to vehicle control was used to calculate the IC50 value. […] Test compound was used at 6 different concentrations ([…]) to estimate IC50.
(§2) The incubation was carried out in 96 deep well plates. Mixture of 180 μL of 20 mg/mL HLM and 90 μL of substrate cocktail solution was added to 15840 μL of phosphate buffer and 179 μL of this mixture was mixed with 1 μL of the test compound, inhibitor cocktail solution or vehicle in each well. The final concentration of DMSO:ACN in the assay mix was 0.3:0.7% v/v. The incubation plate was placed into the water bath and pre-warmed at 37° C. for 5 min before the reactions were started by the addition of 20 μL of 10 mmol/L NADPH solution in phosphate buffer. After the addition of NADPH, the incubation plate was incubated at 37° C. for a further 5 min. The reaction was quenched by the addition of 1 volume (200 μL) of cold ACN containing 3% formic acid and 40 nmol/L verapamil. The plates were kept on ice for 20 min and then centrifuged at 4000 rpm for 30 min to precipitate protein. The supernatant 180 μL was transferred to the analysis plate for LC/MS/MS analysis.

human CYP 2C9 = human CYP 2C9 (Homo sapiens, UniProt P11712); test: CYP inhibition assay, CYP 2C9; assay type: in vitro ADME
Experimental: as §1, §2

human CYP 2C19 [5] = target: T1, human CYP 2C19 (Homo sapiens, UniProt P33261); test: CYP inhibition assay, CYP 2C19; assay type: in vitro ADME
T1 construct: Mixture of 180 μL of 20 mg/mL HLM and 90 μL of substrate cocktail solution; from tissue; host or cells: human liver microsomes (HLM)
Experimental: as §1, §2

human CYP 2D6 = target: T2, human CYP 2D6 (Homo sapiens, UniProt P10635); test: Time dependent CYP inhibition assay, CYP 2D6; assay type: in vitro ADME
T2 construct: Mixture of 180 μL of 20 mg/mL HLM and 90 μL of substrate cocktail solution; from tissue; host or cells: human liver microsomes (HLM)

human CYP 2C19 [6] = target: T1, human CYP 2C19; test: Time dependent CYP inhibition assay, CYP 2C19; assay type: in vitro ADME
human CYP 1A2 = target: T3, human CYP 1A2 (Homo sapiens, UniProt P05177); test: Time dependent CYP inhibition assay, CYP 1A2; assay type: in vitro ADME
T3 sequence (P05177 1-516): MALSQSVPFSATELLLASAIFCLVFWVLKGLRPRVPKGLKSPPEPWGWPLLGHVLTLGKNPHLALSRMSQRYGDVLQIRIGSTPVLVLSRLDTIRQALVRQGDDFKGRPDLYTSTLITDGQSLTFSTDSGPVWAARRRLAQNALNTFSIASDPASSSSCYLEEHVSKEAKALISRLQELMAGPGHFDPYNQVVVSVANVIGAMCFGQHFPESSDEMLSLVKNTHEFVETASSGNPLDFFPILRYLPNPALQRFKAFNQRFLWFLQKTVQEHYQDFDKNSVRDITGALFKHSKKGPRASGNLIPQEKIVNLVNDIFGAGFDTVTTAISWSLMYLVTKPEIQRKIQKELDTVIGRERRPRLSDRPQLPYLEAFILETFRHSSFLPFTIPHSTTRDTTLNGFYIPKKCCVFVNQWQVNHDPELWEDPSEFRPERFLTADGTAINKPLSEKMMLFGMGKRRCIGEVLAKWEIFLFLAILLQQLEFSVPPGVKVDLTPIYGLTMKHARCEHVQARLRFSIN

[7] = Caco-2 permeability assay; assay type: in vitro ADME; conditions: human; Caco-2, 10 μM, pH 6.5/7.4
Experimental: Caco-2 Permeability Assay
Permeability in a Caco-2 monolayer was determined at 10 μM. The Caco-2 cell monolayers were washed once with HBSS. TEER was measured both before and after performing all the transport experiments. Papp was measured in apical A to basolateral B direction. Transport buffer, 800 μL (HBSS, pH 7.4) was first dispensed to the basal side of the monolayer. The assay was then initiated by adding 200 μL of compound solution to the apical side (all test compounds were diluted in HBSS, pH 6.5, with 1% DMSO as co-solvent). Two μL and 200 μL of samples were withdrawn, before and at 45 and 120 min post addition of test compound, from the apical donor compartment and the basolateral receiver compartment, respectively. The transwell plates were incubated at 37° C. on a shaker at 480 rpm inside the incubator. All samples were immediately analysed by LC-MS/MS. A passive permeability was determined by complete chemical inhibition of the three major efflux transporters, ABCB1 (P-gp), ABCG2 (BCRP) and ABCC2 (MRP2), in Caco-2 cells using a cocktail of chemical inhibitors: quinidine (P-gp), sulfasalazine (BCRP) and benzbromarone (MRP2).
The apparent permeability coefficient (Papp) was calculated according to the following equation: Papp=(ΔQ/Δt)/(A×CD)[cm/s] (1) where (ΔQ/Δt) […] is the cumulative amount of test compound transported over time to the basolateral (receiver) side, A is the surface area of the monolayer membrane (cm^2) and CD is the average drug concentration in the donor chamber over the period for which (ΔQ/Δt) was determined.

[8] = human liver microsomes, substrate cocktail, read-out: IC50 CYP 2C9
[9] = human liver microsomes, substrate cocktail, read-out: IC50 CYP 2C19

Sequence of CYP3A4 (P08684 2-503): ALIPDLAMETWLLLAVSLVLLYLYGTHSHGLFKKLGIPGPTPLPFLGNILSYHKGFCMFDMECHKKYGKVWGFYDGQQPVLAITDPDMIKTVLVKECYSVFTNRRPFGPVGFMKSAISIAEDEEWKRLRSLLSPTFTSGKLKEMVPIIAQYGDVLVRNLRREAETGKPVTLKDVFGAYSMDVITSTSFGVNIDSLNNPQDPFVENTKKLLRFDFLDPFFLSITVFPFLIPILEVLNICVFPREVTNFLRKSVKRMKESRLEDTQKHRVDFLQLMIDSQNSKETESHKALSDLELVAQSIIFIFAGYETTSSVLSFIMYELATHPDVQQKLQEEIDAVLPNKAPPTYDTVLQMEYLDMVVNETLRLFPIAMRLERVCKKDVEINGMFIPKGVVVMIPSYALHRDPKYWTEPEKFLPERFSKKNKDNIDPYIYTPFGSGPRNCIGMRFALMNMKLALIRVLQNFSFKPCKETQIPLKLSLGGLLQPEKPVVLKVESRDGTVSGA
Sequence of human CYP 2C9 (P11712 whole entry): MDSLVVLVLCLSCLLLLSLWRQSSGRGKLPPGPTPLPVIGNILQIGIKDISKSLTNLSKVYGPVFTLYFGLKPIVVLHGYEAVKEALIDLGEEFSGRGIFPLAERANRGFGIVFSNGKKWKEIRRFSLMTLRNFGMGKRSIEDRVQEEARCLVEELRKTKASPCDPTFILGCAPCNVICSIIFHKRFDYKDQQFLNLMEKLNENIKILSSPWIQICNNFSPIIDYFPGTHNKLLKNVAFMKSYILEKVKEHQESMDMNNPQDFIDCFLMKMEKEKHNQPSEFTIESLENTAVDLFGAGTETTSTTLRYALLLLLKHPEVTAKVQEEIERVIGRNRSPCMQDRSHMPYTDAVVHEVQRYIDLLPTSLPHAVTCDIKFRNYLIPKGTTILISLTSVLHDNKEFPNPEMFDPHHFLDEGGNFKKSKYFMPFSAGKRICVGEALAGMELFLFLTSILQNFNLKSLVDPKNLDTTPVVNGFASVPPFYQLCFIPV
T1 sequence (P33261 whole entry): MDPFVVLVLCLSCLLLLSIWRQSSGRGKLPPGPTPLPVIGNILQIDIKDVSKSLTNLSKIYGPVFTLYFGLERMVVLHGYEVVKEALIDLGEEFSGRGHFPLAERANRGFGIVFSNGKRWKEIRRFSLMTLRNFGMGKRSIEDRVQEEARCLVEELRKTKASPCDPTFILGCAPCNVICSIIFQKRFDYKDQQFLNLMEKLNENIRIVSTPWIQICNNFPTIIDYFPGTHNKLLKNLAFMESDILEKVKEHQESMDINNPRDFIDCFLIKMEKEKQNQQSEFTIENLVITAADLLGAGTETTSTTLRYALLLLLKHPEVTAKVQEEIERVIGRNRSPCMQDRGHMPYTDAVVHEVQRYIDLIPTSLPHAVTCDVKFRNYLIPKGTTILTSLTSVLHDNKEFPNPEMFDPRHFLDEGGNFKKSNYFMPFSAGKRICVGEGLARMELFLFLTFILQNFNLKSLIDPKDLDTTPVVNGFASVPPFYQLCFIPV
T2 sequence (P10635 whole entry): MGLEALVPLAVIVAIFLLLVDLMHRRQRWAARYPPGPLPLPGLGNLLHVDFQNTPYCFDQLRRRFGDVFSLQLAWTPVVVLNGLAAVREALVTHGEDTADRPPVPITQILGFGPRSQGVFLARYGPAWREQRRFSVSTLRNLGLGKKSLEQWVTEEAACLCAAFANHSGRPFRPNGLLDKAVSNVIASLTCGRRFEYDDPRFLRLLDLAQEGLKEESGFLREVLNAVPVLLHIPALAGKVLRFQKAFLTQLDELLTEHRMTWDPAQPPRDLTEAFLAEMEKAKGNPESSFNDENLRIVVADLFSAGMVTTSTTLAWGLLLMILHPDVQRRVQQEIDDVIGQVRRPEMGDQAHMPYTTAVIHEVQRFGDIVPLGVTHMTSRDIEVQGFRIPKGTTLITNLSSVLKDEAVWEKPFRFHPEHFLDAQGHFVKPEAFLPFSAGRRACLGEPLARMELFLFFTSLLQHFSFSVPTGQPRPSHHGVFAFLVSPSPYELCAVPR

Row | SMILES | BP ratio [1] | BP ratio [2] | Fup [3] | Predicted CLh blood [4] | IC50 at 5 min (CYP3A4) | IC50 (human CYP 2C9) | IC50 (human CYP 2C19 [5]) | IC50 (human CYP 2D6) | IC50 (human CYP 2C19 [6]) | IC50 (human CYP 1A2) | Papp A→B at 120 min, 10 μM [7] | IC50 (human CYP 2C9; [8]) | IC50 (human CYP 2C19 [5]; [9])
1 | CCc1cc(Nc2ncc(N3CCN[C@H](C)C3)c(Nc3cc(C)n(C)n3)n2)nc(C)c1F [Example 7, (R)—N4-(1,5-dimethyl-1H-pyrazol-3-yl)-N2-(4-ethyl-5-fluoro-6-methylpyridin-2-yl)-5-(3-methylpiperazin-1-yl)pyrimidine-2,4-diamine dihydrochloride] | 2.2 | 1.3 | 0.06 | 3.30 mL/min/kg | > 30 µM | > 30 µM | > 30 µM | > 56 µM | > 56 µM | > 56 µM | 5 ×10⁻⁶ cm/s |  | 
2 | Cc1nc(Nc2ncc(N3CCN[C@H](C)C3)c(Nc3cnn(C)n3)n2)cc(C2CC2)c1Cl [Example 10, (R)—N2-(5-chloro-4-cyclopropyl-6-methylpyridin-2-yl)-N4-(2-methyl-2H-1,2,3-triazol-4-yl)-5-(3-methylpiperazin-1-yl)pyrimidine-2,4-diamine dihydochloride] | 1.7 | 1.8 | 0.04 | 3.10 mL/min/kg | > 30 µM |  |  | > 56 µM | > 56 µM | > 56 µM | 3.8 ×10⁻⁶ cm/s | > 30 µM | > 30 µM
3 | Cc1nc(Nc2ncc(N3CCN(C)[C@H](C)C3)c(Nc3cc(C)n(C)n3)n2)cc(C2CC2)c1F [Example 13, (R)—N2-(4-cyclopropyl-5-fluoro-6-methylpyridin-2-yl)-N4-(1,5-dimethyl-1H-pyrazol-3-yl)-5-(3,4-dimethylpiperazin-1-yl)pyrimidine-2,4-diamine] | 1.06 | 1.1 | 0.04 | 4.80 mL/min/kg | > 30 µM |  |  | > 56 µM | > 56 µM | > 56 µM | 19.5 ×10⁻⁶ cm/s | > 30 µM | > 30 µM
